This is an account of results in the supplement of paper PMC5579334.

Assay [1] has as its system S462. Briefly: % inhibition of CellTiter-Glo viability at highest tested concentration (72 h), relative to DMSO and benzethonium chloride controls; higher = more inhibition. The gist of the method: (§1)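 For this screen, 384-well plates were preprinted with each compound at five concentrations in 10-fold steps and seeded with MPNST cell lines or primary human Schwann cells at 750–1000 cells per well. Incubation lasted 72 h at 37 °C, 5% CO2, and CellTiter-Glo ATP luminescence, scaled between vehicle and positive-control wells and averaged over duplicates where available, served as viability. Logistic fits with four parameters were applied. Relative IC50 (censored at the top concentration) and drug sensitivity score derive from these fits, and percent inhibition is at the top concentration.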

Assay [2] has as its system S1507-2. The assay is described as above. The procedure, abridged: as §1
In assay [3] the test system is HS-Sch-2. Described as above. The gist of the method:
as §1

The subject of assay [4] is STS26T. Described as above. The procedure, abridged:
as §1

For assay [5], the system named is HSC2 (primary human Schwann cells). The assay is described as above. The procedure, abridged: as §1
In assay [6] the test system is ST8814. Described as above. The gist of the method: as §1
The test system of assay [7] is HS-PSS. The assay is described as above. The procedure, abridged: as §1
For assay [8], the system named is YST-1. The assay is described as above. The gist of the method: as §1
Assay [9] relates to HSC1 (primary human Schwann cells). The assay is described as above. The procedure, abridged:
as §1

The subject of assay [10] is S1507-2. As to the kind of experiment: drug sensitivity score (DSS, CellTox-Green cytotoxicity, 72 h) (DSS (dimensionless)); higher = more cytotoxic; extreme values may be limits of the assay. The procedure, abridged: (§2)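 MPNST cell lines and primary human Schwann cells were grown for 72 h at 37 °C in 384-well plates containing five 10-fold compound dilutions. CellTox-Green, added before seeding at a final 1:1000 dilution, gave fluorescence from DNA released by disrupted cells, and signals were scaled to vehicle and positive-control wells. Curves were fitted with a four-parameter logistic model. Drug sensitivity score and relative IC50 come from these fits, with IC50 censored at the top concentration.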

For assay [11], the system named is STS26T. The assay is described as above. The procedure, abridged:
as §2

Assay [12] relates to HSC2 (primary human Schwann cells). The description is as above. The gist of the method: as §2
In assay [13] the test system is ST8814. The assay is described as above. The procedure, abridged:
as §2

In assay [14] the test system is HS-PSS. Described as above. The gist of the method:
as §2

The test system of assay [15] is HSC1 (primary human Schwann cells). Described as above. The procedure, abridged: as §2
The subject of assay [16] is S462. As to the kind of experiment: drug sensitivity score (DSS, CellTiter-Glo viability, 72 h) (DSS (dimensionless)); higher = more sensitive; extreme values may be limits of the assay. The gist of the method:
as §1

For assay [17], the system named is S1507-2. The description is as above. The procedure, abridged: as §1
Assay [18] relates to HS-Sch-2. The assay is described as above. The procedure, abridged:
as §1

For assay [19], the system named is STS26T. Described as above. The gist of the method: as §1
The test system of assay [20] is HSC2 (primary human Schwann cells). The description is as above. The procedure, abridged: as §1
Assay [21] relates to ST8814. Described as above. The gist of the method:
as §1

In assay [22] the test system is HS-PSS. Described as above. The procedure, abridged:
as §1

The subject of assay [23] is YST-1. Described as above. The procedure, abridged:
as §1

Assay [24] deals with HSC1 (primary human Schwann cells). The description is as above. The gist of the method: as §1

± gives the standard deviation of the averaged measurements.

As for `CC(C)(C)c1cc(NC(=O)Nc2ccc(-c3cn4c(n3)sc3cc(OCCN5CCOCC5)ccc34)cc2)no1` [Quizartinib] (max concentration tested 1000 nM), the “% inhibition” value in the assay on S462 [1] was found to be 64.2 ± 37%; in the assay with S1507-2 [2], 21.3 ± 1.4%; in the assay with HS-Sch-2 [3] it was 14.4%; with STS26T [4] it was 15.3%; in assay [5], 36.6%; in the assay with ST8814 [6], 15.8%. Also, the “% inhibition” value in the assay on HS-PSS [7] is -10.7%; with YST-1 [8], 78.7%; in assay [9], 47.8%. Further, the drug sensitivity score (in the assay with S1507-2 [10]; in the assay on STS26T [11]; in assay [12]; in the assay on ST8814 [13]; in the assay on HS-PSS [14]; in [15]) was 0 each time. The drug sensitivity score in the assay with S462 [16] was 4.8 ± 1.2; in the assay with S1507-2 [17], 1.94 ± 0.75; with HS-Sch-2 [18], 0.1; with STS26T [19], 1.24; in [20] it was 1.32; in the assay with ST8814 [21] it was 2.56. Further, the drug sensitivity score with HS-PSS [22] was determined as 0; in the assay on YST-1 [23], 7.45; in assay [24], 3.73.

In the case of `Cn1c(Nc2ccc(C(F)(F)F)cc2)nc2cc(Oc3ccnc(-c4ncc(C(F)(F)F)[nH]4)c3)ccc21` [RAF265] (max concentration tested 1000 nM), the “% inhibition” value amounted to 51.9 ± 1.2% with S462 [1]; 43.6 ± 6% in the assay on S1507-2 [2]; 22.3% with HS-Sch-2 [3]; 40.9% in the assay with STS26T [4]; 68.9% in assay [5]; 33.1% with ST8814 [6]. For the same compound, the “% inhibition” value in the assay with HS-PSS [7] is 52.2%; with YST-1 [8] it was 30.2%; in [9], 70.8%. The drug sensitivity score (in the assay with S1507-2 [10]; in the assay with STS26T [11]; in assay [12]; in the assay on ST8814 [13]; in the assay on HS-PSS [14]; in assay [15]) was 0 each time. In addition, the drug sensitivity score in the assay on S462 [16] worked out at 5.79 ± 0.67; with S1507-2 [17] it was 4.23 ± 0.6; in the assay with HS-Sch-2 [18], 1.56; in the assay on STS26T [19], 3.93; in [20], 14.4; in the assay on ST8814 [21], 3.46. In addition, the drug sensitivity score in the assay on HS-PSS [22] was found to be 4.44; in the assay on YST-1 [23], 2.73; in assay [24], 11.2.

In the case of `CNC(=O)c1ccc(N2C(=S)N(c3ccc(C#N)c(C(F)(F)F)c3)C(=O)C23CCC3)cc1F` [RD162] (max concentration tested 10000 nM), the “% inhibition” value with S462 [1] was -0.791 ± 7.8%; with S1507-2 [2], 10.7 ± 20%; in the assay with HS-Sch-2 [3] it was 9.66%; in the assay with STS26T [4], 4.23%; in assay [5], 8.13%; in the assay with ST8814 [6], 10%. In addition, the “% inhibition” value was -0.07% in the assay on HS-PSS [7], 7.83% in the assay on YST-1 [8] and 11.2% in assay [9]. The drug sensitivity score with S1507-2 [10] came to 2.37 ± 3.4; with STS26T [11], 0; in [12], 0; in the assay on ST8814 [13] it was 0; in the assay on HS-PSS [14], 0; in [15], 0. The drug sensitivity score in the assay on S462 [16] turned out to be 0; with S1507-2 [17] it was 1.24 ± 1.8; in the assay with HS-Sch-2 [18], 0; in the assay with STS26T [19], 0; in assay [20] it was 0; in the assay with ST8814 [21], 0. Besides, the drug sensitivity score with HS-PSS [22] turned out to be 0; in the assay with YST-1 [23], 0; in assay [24], 0.0127.

`Cc1cnc(NC(=O)Nc2cc(Br)c(C)cc2OC[C@@H]2CNCCO2)cn1` [Rabusertib] (max concentration tested 1000 nM): the “% inhibition” value with S462 [1] was 91.37 ± 0.63%; with S1507-2 [2], 51.1 ± 10%; in the assay on HS-Sch-2 [3] it was 84.7%; in the assay on STS26T [4], 36.4%; in assay [5] it was 22.3%; in the assay on ST8814 [6] it was 2.25%. In addition, the “% inhibition” value was found to be 17.4% in the assay with HS-PSS [7], 32.8% in the assay on YST-1 [8] and 11.3% in [9]. Moreover, the drug sensitivity score in the assay on S1507-2 [10] was determined as 1.21 ± 1.4; with STS26T [11] it was 1.88; in assay [12], 0; in the assay with ST8814 [13] it was 0; with HS-PSS [14], 0; in [15], 0.0001. Also, the drug sensitivity score in the assay on S462 [16] was determined as 5.07 ± 0.2; in the assay on S1507-2 [17], 3.39 ± 0.54; in the assay with HS-Sch-2 [18], 4.93; in the assay with STS26T [19] it was 2.75; in assay [20], 1.36; with ST8814 [21], 0. Moreover, the results for the drug sensitivity score (in the assay on HS-PSS [22]; with YST-1 [23]; in [24]) were 0.93, 1.96 and 0.0015, respectively.

As for `CC(C)(C)Cn1c(N)nc2ccc(-c3[nH]c(C(C)(C)C)nc3-c3ccc(F)cc3)nc21` [Ralimetinib] (max concentration tested 10000 nM), the “% inhibition” value was found to be 13.4 ± 7.5% in the assay on S462 [1]; 33.8 ± 6.8% in the assay on S1507-2 [2]; 54.9% with HS-Sch-2 [3]; 28.7% in the assay with STS26T [4]; 34% in assay [5]; 28.2% in the assay on ST8814 [6]. For the same compound, the “% inhibition” value was found to be 45.7% in the assay with HS-PSS [7], 41.8% in the assay on YST-1 [8] and 34.9% in assay [9]. In addition, the drug sensitivity score (in the assay with S1507-2 [10]; in the assay with STS26T [11]; in assay [12]; in the assay on ST8814 [13]; with HS-PSS [14]; in assay [15]) was 0 each time. The drug sensitivity score in the assay with S462 [16] was determined as 0.51 ± 0.72; in the assay with S1507-2 [17], 2.27 ± 0.73; in the assay with HS-Sch-2 [18], 2.8; in the assay on STS26T [19], 1.33; in assay [20] it was 3.4; with ST8814 [21], 2.03. In addition, the results for the drug sensitivity score (with HS-PSS [22]; in the assay with YST-1 [23]; in assay [24]) were 1.76, 7.83 and 2.2, respectively.

As to `O=C(c1ccc(OCCN2CCCCC2)cc1)c1c(-c2ccc(O)cc2)sc2cc(O)ccc12` [Raloxifene] (max concentration tested 10000 nM), the “% inhibition” value with S462 [1] was determined as 19.7 ± 3.4%; in the assay with S1507-2 [2] it was 54.55 ± 0.068%; in the assay with HS-Sch-2 [3] it was 85.8%; in the assay on STS26T [4], 41.3%; in [5], 41.8%; in the assay on ST8814 [6], 36.5%. Also, the “% inhibition” value in the assay on HS-PSS [7] came out at 44.5%; in the assay with YST-1 [8] it was 25.5%; in assay [9], 42.1%. Besides, the drug sensitivity score in the assay with S1507-2 [10] was found to be 1.4 ± 1.7; with STS26T [11] it was 0.897; in assay [12], 0; in the assay with ST8814 [13] it was 1.85; with HS-PSS [14], 0; in assay [15], 0. Moreover, the drug sensitivity score in the assay with S462 [16] was 0.649 ± 0.51; in the assay on S1507-2 [17] it was 2.99 ± 0.22; with HS-Sch-2 [18], 7.33; in the assay on STS26T [19], 1.99; in assay [20], 3.34; with ST8814 [21], 1.9. The figures for the drug sensitivity score (with HS-PSS [22]; in the assay on YST-1 [23]; in assay [24]) were 4.8, 1.7 and 2.17, respectively.
